Series [1] is described as follows: Vitrification ability of cell membrane permeable substances by rapid cooling with liquid nitrogen. It is filed as physicochemical. The conditions noted are these: 30% solution in PBS. How it is done:
The 10 to 50% solutions of 6 dials (EG, PG, BG, IPG, DPG and PEG) and of DMSO were prepared and confirmed to be vitrified by rapid cooling with liquid nitrogen. Specifically, respective cell membrane permeable substances are dissolved in PBS to concentrations of 10, 20, 30, 40 and 50%, and the solution was stained with a small amount of phenol red in order to readily judge the vitrification. The solution thus prepared was divided into 200 μl portions in cryo-tubes, which were dipped into liquid nitrogen for rapid cooling. The tubes were dipped into liquid nitrogen for 5 minutes or more to stabilize the temperature before observation of each tube.

In series [2] the test system is Common marmoset (CM) ES cells. Kind of series: Cytotoxicity and influence on differentiation with common marmoset ES cells. It is filed as cell-based. The conditions noted are these: 2% in culture medium for CMES; for nature of the colony morphology: after 3 days. On the procedure: Specifically, the experiment was conducted as follow • CMES cells were cultured with reference to “Establishment of novel embryonic stem cell lines derived from the common marmoset” ([…], Izawa […], Asano 5, Nakatsuji N, Okano H, Tani K. Stem Cells. 2005 October; 23(9):1304-13). • CMES cells were seeded in a φ35 mm dish to which feeder cells had preliminarily been adhered, and the cell membrane permeable substance was added in an amount corresponding to 2% of the amount of the culture medium. • After 3 days, microscopic observation was conducted, and the presence of the growth suppression and differentiation promotion on CMES cells was examined.

Series [3] deals with Mouse ES cell line strain D3. Kind of series: Vitrification preservation efficiency with mouse ES cells (trypan blue survival rate, colony observation). In kind it is cell-based. Particulars: for colonies after vitrification, melting and culture: cell membrane permeable substance used alone, 40%, 60 seconds, 3 days culture. On the procedure:
The mouse ES cells after vitrification and melting were seeded, and the state of the cells after culture was confirmed by microscopic observation.
(§1) Specifically, the experiment was conducted as follows: • Mouse ES cells were cultured according to the ordinary method. • The mouse ES cells recovered were counted, divided into 10^6 cell portions in 1.5 ml tubes, and centrifuged at 1500 rpm for 5 minutes. • The supernatant was removed, and the cells were suspended in 200 μl of the vitrification medium. • After suspension, DAP213 and the test fluid were dipped into liquid nitrogen after 15 seconds and 60 seconds, respectively, for vitrification. • The tubes were left standing for 5 minutes or more to stabilize the temperature. • The tubes were taken out liquid nitrogen, and the cells were diluted with 1800 μl of the culture medium preliminarily heated to 37° C. and rapidly suspended for melting. • A portion of the suspension was sampled for counting the cells. • On counting the cells, the life or death of cells was judged from the index of the selective excretive ability of the viable cells to trypan blue and the survival rate was calculated. • The remaining cells were seeded in a 24 well plate, and the state after 3 days was confirmed by microscopic observation.
The 40% solution of each cell membrane permeable substance in PBS was prepared, and the mouse ES cells was suspended in the solution, left standing for 60 seconds, and dipped into liquid nitrogen for vitrification.
as §1, with “Specifically,” for “Specifically, the”, “out from” for “out”
as §1, with “Specifically,” for “Specifically, the”, “out from” for “out”, “calculated.” for “calculated. • The remaining cells were seeded in a 24 well plate, and the state after 3 days was confirmed by microscopic observation.”

In series [4] the test system is Common marmoset ES cell line strain CMES40. Kind of series: Preservation effect on common marmoset ES cells (take rate, ALP-positive colonies). In kind it is cell-based. Particulars: cell membrane permeable substance used alone, with trehalose, 60 seconds. The text has this: According to the present invention, it is possible to provide a vitrification medium which is excellent in operability and safety and can efficiently preserve cells, particularly primate ES/iPS cells. Specifically, the take rate of ca. 60% could be obtained even if simian ES cells were suspended in the vitrification medium of the present invention and after 60 seconds the suspension was poured into liquid nitrogen (as described hereinafter, the “take rate” in place of the “survival rate” is used with respect to the preservation efficiency of simian ES cells. In this place, the take rate is calculated on the basis of the number of undifferentiated colonies having taken after three or four days from the seeding of the cells without vitrification as 100). Hitherto, when DAP213, which has been most commonly used, was used, it was important to pour the cell suspension into liquid nitrogen within 15 seconds after suspending the cells in DAP213 for avoiding the lowering of the survival rate. Due to this fact, skillfulness was required for operations and wide dispersion in results was apprehended to occur depending on the technical skills of operators, so that a stable result was not always obtained. […]

Series [5] is described as follows: Solubility at low temperature. It is filed as physicochemical.
Series [6] in a line: Examination of vitrification promoting substances in 30% DMSO/PBS. In kind it is physicochemical. The conditions noted are these: 0.3 M added to 30% DMSO solution. On the procedure: Specifically, the experiment was conducted as follows: • As the vitrification promoting substance, the following saccharides were examined: glucose, sucrose, maltose, fructose, trehalose, raffinose, erythritol, xylitol, sorbitol and mannitol. • The vitrification promoting substance was dissolved in 30% DMSO/PBS to a concentration of 0.3 M and 0.6 M respectively. • The solution thus prepared was divided into 200 μl portions in cryo-tubes, which were dipped into liquid nitrogen for rapid cooling. The tubes were dipped into liquid nitrogen for 5 minutes or more to stabilize the temperature before observation of each tube.

The nature of series [7]: Examination of ice crystal growth inhibitor: time for melting the vitrified storage solution. In kind it is physicochemical. The conditions noted are these: for time required for the once vitrificated storage solution to be melted completely: 40% EG storage solution with the additive. On the procedure: Examination of the ice crystal growth inhibitor was conducted by comparing the times required for melting the crystallized vitrificated storage solutions. That is, when crystal lumps having the same volume are melted, a polycrystalline substance having a larger total surface area is melted more quickly. It is believed that when the growth of ice crystals is suppressed on the phase transition to crystalline state, the melting time is shortened probably due to the formation of many minute ice crystals.
Specifically, experiment was conducted according to the following procedure. • The test fluid prepared was dispensed in a portion of 200 μl into 1.5 ml microtubes. • Dewar vessel was charged with liquid nitrogen, and a timer was provided. • The microtube was picked up with tweezers and dipped into liquid nitrogen for 40 seconds for vitrification. • The microtube was pulled out from liquid nitrogen, and the time required for complete disappearance of ice within the tube was measured.

Entries after “also recorded” stand apart in the source; their conditions may differ.

Results on twelve molecules are retold here after patent US20130236960A1, “VITRIFICATED STORAGE SOLUTION FOR CELLS” (priority 2010, published 2013).

Regarding `OCCCCO` [BG, Butylene glycol], the “vitrification by rapid cooling with liquid nitrogen” value in series [1] is reported as “vitrified”.
As to `C[S+](C)[O-]` [DMSO, Dimethyl sulfoxide], in series [2], the “differentiation promoting effect on the CMES cells” value (“differentiation promoting effect” below) is reported as “no differentiation promoting effect” and the “nature of the colony morphology” value is given as “good”. Also, the “colonies after vitrification, melting and culture” value (“colonies after vitrification” below) in series [3] is “least number of colonies”. Also, the “vitrification by rapid cooling with liquid nitrogen” value in series [1] is reported as “no vitrification occurs”.
With `CC(O)COC(C)CO` (centres unmarked) [DPG, Diprepylene glycol], in series [1], the “vitrification by rapid cooling with liquid nitrogen” value is listed as “vitrified”.
With `OCCO` [EG, Ethylene glycol], the preservation efficiency result in series [4] is listed as “high preservation efficiency”. Besides, in series [2], the “differentiation promoting effect” value is “no differentiation promoting effect” and the “nature of the colony morphology” value is on record as “good”. Also, the “survival rate after melting” value in series [3] (40% solution in PBS, left standing for 60 seconds before vitrification) was “substantially lowered as compared with DMSO+PG; also recorded: second highest”. The “colonies after vitrification” value in series [3] is reported as “biggest colony”.
On to `CC(C)(O)CCO` [IPG, Isoprene glycol], for which, in series [1], the “vitrification by rapid cooling with liquid nitrogen” value is “vitrified”.
For `CC(O)CO` (centres unmarked) [PG, Propylene glycol], in series [2], the “differentiation promoting effect” value is “no differentiation promoting effect” and the “nature of the colony morphology” value was “good”. In addition, the “colonies after vitrification” value in series [3] was “secondly”. For the same molecule, the “vitrification by rapid cooling with liquid nitrogen” value in series [1] is given as “vitrified”.
Take `CC(N)=O` [acetamide, Acetamide]: the “survival rate, effect of acetamide” value in series [3] (DAP213 versus DP23, vitrification after 60 seconds) is “reduced”. The “improvement of the survival rate due to acetamide” value in series [3] (DAP213 versus DP23, vitrification within 15 seconds) is “not recognized”.
In the case of `OC[C@H]1O[C@H](OC[C@H]2O[C@H](O[C@]3(CO)O[C@H](CO)[C@@H](O)[C@@H]3O)[C@H](O)[C@@H](O)[C@@H]2O)[C@H](O)[C@@H](O)[C@H]1O` [raffinose, D-(+)-Raffinose-pentahydrate], the solubility result in series [5] was “low solubility”. In series [6], the “vitrification by rapid cooling in liquid nitrogen” value is given as “vitrified”.
As to `OC[C@H]1O[C@@](CO)(O[C@H]2O[C@H](CO)[C@@H](O)[C@H](O)[C@H]2O)[C@@H](O)[C@@H]1O` [sucrose, Sucrose, reference compound], the “time required for the once vitrificated storage solution to be melted completely” value (from here on “time required”) in series [7] is given as “no reduction of melting time”.
In the case of `OC[C@H]1O[C@H](O[C@H]2O[C@H](CO)[C@@H](O)[C@H](O)[C@H]2O)[C@H](O)[C@@H](O)[C@@H]1O` [trehalose, D-(+)-Trehalose-dihydrate], in series [7], the “time required” value is on record as “no reduction of melting time”. For the same molecule, in series [6], the “vitrification by rapid cooling in liquid nitrogen” value is “vitrified”.
For “Bovine serum albumin [reference compound]”, in series [7], the “time required” value is “an effect similar to that of sericin, its activity remained unsatisfactory”.
As to sericin, the “time required” value in series [7] is given as “shortened”. Moreover, the “growth of ice crystals” value in series [7] (concluded from melting time) is “suppresses the growth of ice crystals”.
